According to ChEMBL document CHEMBL1949526, “Cyclic hydroxyamidines as amide isosteres: discovery of oxadiazolines and oxadiazines as potent and highly efficacious γ-secretase modulators in vivo” (J Med Chem, 2012):

Tests used:
Gamma-secretase [1] = experiment: Modulation of gamma-secretase-mediated cleavage of human APP Swedish and London mutation expressed in HEK293 cells assessed as inhibition of amyloid beta42 production after 5 hrs by sandwich immunoassay; assay type: cell-based
Gamma-secretase [2] = experiment: Modulation of gamma-secretase-mediated cleavage of human APP Swedish and London mutation expressed in HEK293 cells assessed as reduction of total amyloid beta level after 5 hrs by sandwich immunoassay; assay type: cell-based
[3] = molecular target: Gamma-secretase (Homo sapiens) (UniProt Q96BI3+Q9NZ42+Q8WW43+P49768+Q92542+P49810); experiment: Modulation of gamma-secretase-mediated cleavage of human APP Swedish and London mutation expressed in HEK293 cells assessed as reduction of total amyloid beta/amyloid beta42 ratio after 5 hrs by sandwich immunoassay; assay type: cell-based
[4] = Dissociation constant, pKa of the compound; assay type: physicochemical
Cytochrome P450 3A4 = Cytochrome P450 3A4 (Homo sapiens, UniProt P08684); experiment: Inhibition of human CYP3A4; assay type: ADME
Cytochrome P450 2D6 = Cytochrome P450 2D6 (Homo sapiens, UniProt P10635); experiment: Inhibition of human CYP2D6; assay type: ADME
Cytochrome P450 2C9 = Cytochrome P450 2C9 (Homo sapiens, UniProt P11712); experiment: Inhibition of human CYP2C9; assay type: ADME
[5] = molecular target: T1, Nuclear receptor subfamily 1 group I member 2 (Homo sapiens, UniProt O75469); experiment: Induction of human PXR
T1 sequence (O75469 whole entry): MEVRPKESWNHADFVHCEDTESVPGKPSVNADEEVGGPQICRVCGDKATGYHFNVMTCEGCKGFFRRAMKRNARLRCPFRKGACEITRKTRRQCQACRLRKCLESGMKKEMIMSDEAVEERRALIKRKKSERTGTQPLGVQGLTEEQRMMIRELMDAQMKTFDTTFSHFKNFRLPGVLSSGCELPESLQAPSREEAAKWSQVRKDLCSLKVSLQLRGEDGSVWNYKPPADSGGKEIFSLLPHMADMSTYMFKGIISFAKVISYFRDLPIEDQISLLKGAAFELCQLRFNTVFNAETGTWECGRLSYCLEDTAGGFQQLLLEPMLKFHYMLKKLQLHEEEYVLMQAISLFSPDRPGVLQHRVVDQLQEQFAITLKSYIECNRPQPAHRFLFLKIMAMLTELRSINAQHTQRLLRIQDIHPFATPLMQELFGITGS

[6] = molecular target: Voltage-gated inwardly rectifying potassium channel KCNH2 (Homo sapiens, UniProt Q12809); experiment: Inhibition of human ERG by cell based voltage clamp assay
Homo sapiens = species: Homo sapiens; experiment: Cardiotoxicity in human assessed as QT prolongation; assay type: toxicity, organism-based; conditions: in vivo
Rattus norvegicus [7] = experiment: Antialzheimer activity in rat assessed as reduction in amyloid beta42 level in CSF at 10 mg/kg, po after 3 hrs; assay type: functional; design: scale not given: the % may be the effect or the level left
Rattus norvegicus [8] = experiment: Antialzheimer activity in rat assessed as reduction in amyloid beta42 level in CSF at 3 mg/kg, po after 3 hrs; assay type: functional; design: scale not given: the % may be the effect or the level left
Rattus norvegicus [9] = experiment: Antialzheimer activity in po dosed rat assessed as reduction in amyloid beta42 level in CSF after 3 hrs; assay type: functional, organism-based
Gamma-secretase [10] = experiment: Modulation of gamma-secretase-mediated cleavage of human APP Swedish and London mutation expressed in HEK293 cells assessed as inhibition of amyloid beta40 production after 5 hrs by sandwich immunoassay; assay type: cell-based
[11] = Permeability from apical to basolateral side of human Caco2 cells; assay type: ADME, cell-based; conditions: Caco-2, read-out: permeability
[12] = Efflux ratio of permeability from basolateral to apical side over apical to basolateral side in human Caco2 cells; assay type: ADME, cell-based; conditions: Caco-2
Rattus norvegicus [13] = experiment: AUC in rat at 10 mg/kg, po; assay type: ADME, organism-based, Plasma; design: dose 10 mg/kg, route oral; conditions: in vivo
[14] = Cmax in rat at 10 mg/kg, po; assay type: ADME, organism-based; design: dose 10 mg/kg, route oral; conditions: in vivo
Rattus norvegicus [15] = experiment: Oral bioavailability in rat at 10 mg/kg; assay type: ADME, organism-based; conditions: in vivo
[16] = Half life in rat at 3 mg/kg, iv; assay type: ADME, organism-based; design: dose 3 mg/kg, route intravenous; conditions: in vivo
[17] = Volume of distribution at steady state in rat at 3 mg/kg, iv; assay type: ADME, organism-based; design: dose 3 mg/kg, route intravenous; conditions: in vivo, read-out: Vdss
Canis familiaris [18] = experiment: AUC in dog at 10 mg/kg, po; assay type: ADME, organism-based, Canis lupus familiaris, Plasma; design: dose 10 mg/kg, route oral; conditions: in vivo
[19] = Cmax in dog at 10 mg/kg, po; assay type: ADME, organism-based, Canis lupus familiaris; design: dose 10 mg/kg, route oral; conditions: in vivo
Canis familiaris [20] = experiment: Oral bioavailability in dog at 10 mg/kg; assay type: ADME, organism-based, Canis lupus familiaris; conditions: in vivo
[21] = Half life in dog at 3 mg/kg, iv; assay type: ADME, organism-based, Canis lupus familiaris; design: dose 3 mg/kg, route intravenous; conditions: in vivo
[22] = Volume of distribution at steady state in dog at 3 mg/kg, iv; assay type: ADME, organism-based, Canis lupus familiaris; design: dose 3 mg/kg, route intravenous; conditions: in vivo, read-out: Vdss
[23] = AUC in monkey at 10 mg/kg, po; assay type: ADME, organism-based, Macaca mulatta; design: dose 10 mg/kg, route oral; conditions: rhesus monkey, plasma
[24] = Cmax in monkey at 10 mg/kg, po; assay type: ADME, organism-based, Macaca mulatta; design: dose 10 mg/kg, route oral; conditions: rhesus monkey, in vivo
[25] = Oral bioavailability in monkey at 10 mg/kg; assay type: ADME, organism-based, Macaca mulatta; conditions: rhesus monkey, in vivo
[26] = Half life in monkey at 3 mg/kg, iv; assay type: ADME, organism-based, Macaca mulatta; design: dose 3 mg/kg, route intravenous; conditions: rhesus monkey, in vivo
[27] = Volume of distribution at steady state in monkey at 3 mg/kg, iv; assay type: ADME, organism-based, Macaca mulatta; design: dose 3 mg/kg, route intravenous; conditions: rhesus monkey, in vivo, read-out: Vdss
[28] = Clearance in monkey at 3 mg/kg, iv; assay type: ADME, organism-based, Macaca mulatta; design: dose 3 mg/kg, route intravenous; conditions: rhesus monkey, in vivo
Canis familiaris [29] = species: Canis familiaris; experiment: Cardiotoxicity in dog assessed as effect on electrocardiographic QTc interval at compound concentration required for pharmacological effect; assay type: toxicity, organism-based, Canis lupus familiaris; conditions: in vivo
[30] = Drug level in rat brain at 10 mg/kg, po after 3 hrs; assay type: ADME, organism-based; design: dose 10 mg/kg, route oral; conditions: read-out: Drug uptake
[31] = Drug level in rat brain at 3 mg/kg, po after 3 hrs; assay type: ADME, organism-based; design: dose 3 mg/kg, route oral; conditions: read-out: Drug uptake

Sequence of Voltage-gated inwardly rectifying potassium channel KCNH2 (Q12809 whole entry): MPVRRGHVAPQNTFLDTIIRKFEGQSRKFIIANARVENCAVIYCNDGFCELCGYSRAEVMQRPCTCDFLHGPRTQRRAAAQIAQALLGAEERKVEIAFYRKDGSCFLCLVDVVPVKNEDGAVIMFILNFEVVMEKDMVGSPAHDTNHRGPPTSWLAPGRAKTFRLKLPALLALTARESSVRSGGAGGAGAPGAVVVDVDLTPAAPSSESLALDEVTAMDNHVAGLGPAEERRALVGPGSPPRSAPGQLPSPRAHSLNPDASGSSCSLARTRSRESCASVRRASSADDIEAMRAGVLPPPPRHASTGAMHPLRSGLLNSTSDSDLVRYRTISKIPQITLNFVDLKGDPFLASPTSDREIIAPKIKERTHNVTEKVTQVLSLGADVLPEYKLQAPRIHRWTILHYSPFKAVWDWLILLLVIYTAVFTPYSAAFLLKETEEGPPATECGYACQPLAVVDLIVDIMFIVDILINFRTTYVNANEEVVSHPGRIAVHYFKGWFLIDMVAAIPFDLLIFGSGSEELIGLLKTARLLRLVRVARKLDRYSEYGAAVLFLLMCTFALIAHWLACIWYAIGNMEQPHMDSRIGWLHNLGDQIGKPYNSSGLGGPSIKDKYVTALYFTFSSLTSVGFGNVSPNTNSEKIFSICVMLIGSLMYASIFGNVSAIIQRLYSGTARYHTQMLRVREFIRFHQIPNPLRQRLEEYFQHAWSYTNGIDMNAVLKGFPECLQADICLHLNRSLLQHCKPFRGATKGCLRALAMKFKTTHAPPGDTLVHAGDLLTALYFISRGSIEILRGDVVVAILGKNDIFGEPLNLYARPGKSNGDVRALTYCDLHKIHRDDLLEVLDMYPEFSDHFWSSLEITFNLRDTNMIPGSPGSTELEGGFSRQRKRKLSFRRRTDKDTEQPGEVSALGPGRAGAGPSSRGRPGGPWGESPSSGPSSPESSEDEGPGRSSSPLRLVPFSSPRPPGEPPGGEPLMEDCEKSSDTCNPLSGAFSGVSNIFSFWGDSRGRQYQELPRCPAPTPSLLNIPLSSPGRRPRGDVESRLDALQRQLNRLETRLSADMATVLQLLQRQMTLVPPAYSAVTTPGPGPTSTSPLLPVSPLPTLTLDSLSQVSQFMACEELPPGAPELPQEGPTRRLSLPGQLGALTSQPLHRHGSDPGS
Sequence of Cytochrome P450 3A4 (P08684 whole entry): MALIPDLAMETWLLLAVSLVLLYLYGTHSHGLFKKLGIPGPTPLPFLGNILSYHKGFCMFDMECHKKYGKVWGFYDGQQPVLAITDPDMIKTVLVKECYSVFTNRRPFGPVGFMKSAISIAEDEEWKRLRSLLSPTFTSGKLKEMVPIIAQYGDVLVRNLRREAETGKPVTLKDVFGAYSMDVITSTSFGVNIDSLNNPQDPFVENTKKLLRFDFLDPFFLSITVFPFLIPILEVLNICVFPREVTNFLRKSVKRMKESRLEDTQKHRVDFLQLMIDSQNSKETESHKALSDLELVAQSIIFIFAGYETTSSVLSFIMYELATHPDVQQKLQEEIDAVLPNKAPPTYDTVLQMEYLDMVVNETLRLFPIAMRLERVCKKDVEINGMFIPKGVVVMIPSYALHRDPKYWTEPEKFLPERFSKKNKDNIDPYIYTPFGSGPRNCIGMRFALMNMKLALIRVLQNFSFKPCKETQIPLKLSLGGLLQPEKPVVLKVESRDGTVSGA
Sequence of Cytochrome P450 2C9 (P11712 whole entry): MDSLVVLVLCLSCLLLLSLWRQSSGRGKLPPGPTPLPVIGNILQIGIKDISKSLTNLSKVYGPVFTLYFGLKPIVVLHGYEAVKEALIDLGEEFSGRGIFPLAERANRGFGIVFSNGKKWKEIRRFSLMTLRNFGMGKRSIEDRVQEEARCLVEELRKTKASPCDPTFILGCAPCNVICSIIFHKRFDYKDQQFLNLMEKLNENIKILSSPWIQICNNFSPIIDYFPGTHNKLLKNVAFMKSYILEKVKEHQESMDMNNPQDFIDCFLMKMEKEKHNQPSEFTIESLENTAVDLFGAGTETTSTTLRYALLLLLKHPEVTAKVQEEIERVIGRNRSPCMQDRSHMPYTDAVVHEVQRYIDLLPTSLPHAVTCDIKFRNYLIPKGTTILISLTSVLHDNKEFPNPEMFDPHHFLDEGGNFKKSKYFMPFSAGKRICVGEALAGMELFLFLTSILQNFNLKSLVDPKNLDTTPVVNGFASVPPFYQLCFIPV
Sequence of Cytochrome P450 2D6 (P10635 whole entry): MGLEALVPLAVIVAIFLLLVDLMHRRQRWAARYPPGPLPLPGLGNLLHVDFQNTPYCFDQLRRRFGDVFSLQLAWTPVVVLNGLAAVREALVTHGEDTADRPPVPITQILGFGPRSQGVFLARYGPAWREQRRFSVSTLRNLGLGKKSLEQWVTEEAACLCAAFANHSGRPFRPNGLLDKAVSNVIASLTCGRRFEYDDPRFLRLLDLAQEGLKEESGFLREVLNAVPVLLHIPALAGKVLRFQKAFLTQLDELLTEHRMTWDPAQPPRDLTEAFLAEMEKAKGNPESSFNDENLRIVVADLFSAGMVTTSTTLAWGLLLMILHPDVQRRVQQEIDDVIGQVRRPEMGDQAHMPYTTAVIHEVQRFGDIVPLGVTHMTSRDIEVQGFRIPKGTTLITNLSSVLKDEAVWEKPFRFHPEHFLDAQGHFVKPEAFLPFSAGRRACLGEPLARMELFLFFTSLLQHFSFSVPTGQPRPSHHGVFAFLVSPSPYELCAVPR

- IC50 (Gamma-secretase [1]): 0.058 µM
- IC50 (Gamma-secretase [2]): 13.7 µM
- Ratio IC50 [3]: 237
- pKa [4]: 6.7
- inhibition (INH) (Cytochrome P450 3A4): Not Active
- inhibition (INH) (Cytochrome P450 2D6): Not Active
- inhibition (INH) (Cytochrome P450 2C9): Not Active
- Activity [5]: Not Active
- IC50 (Gamma-secretase [10]): 0.267 µM
- Papp A→B [11]: 346 nm/s
- efflux ratio [12]: 0.6
- AUC (Rattus norvegicus [13]): 19 µM·h
- Cmax [14]: 4.9 µM
- F (Rattus norvegicus [15]): 78%
- half-life [16]: 2.5 h
- Vd [17]: 1.6 L/kg
- AUC (Canis familiaris [18]): 27 µM·h
- Cmax [19]: 5.3 µM
- F (Canis familiaris [20]): 69%
- half-life [21]: 1.7 h
- Vd [22]: 2.2 L/kg
- AUC [23]: 30 µM·h
- Cmax [24]: 5.6 µM
- bioavailability [25]: 57%
- half-life [26]: 2 h
- Vd [27]: 1 L/kg
- clearance [28]: 0.438 L/h/kg
- concentration at 3 h [30]: 5 µM
- concentration at 3 h [31]: 0.8 µM
SMILES: COc1cc(/C=C2\CCCN3C2=NOC3(C)c2ccc(F)cc2)ccc1-n1cnc(C)c1 (single isomer, unassigned)
- IC50 [6]: 0.74 µM
- Activity (Homo sapiens): Toxic
- Activity (Rattus norvegicus [7]): 51%
- Activity (Rattus norvegicus [8]): 30%
- Activity (Rattus norvegicus [9]): Dose-dependent effect
- Activity (Canis familiaris [29]): Non-toxic
